Source: publication PMC11513920, “Building Metabolically Stable and Potent Anti-HIV Thioether-Lipid Analogues of Tenofovir Exalidex: A thorough Pharmacological Analysis” (Journal of Medicinal Chemistry, 2024)

Key:
[1] = Human liver microsome stability; conditions: for half-life at 3 μM / half-life at 2.083 h, 3 µM / remaining at 2 h, 3 μM: human; for remaining at 2 h, 3 μM: HLM % remaining; for remaining at 2 h, 3 μM / HLM % remaining: relative percent remaining of prodrug at 120 min
Experimental: Human liver microsomes (HLMs, 20 mg/mL) and CD-1 mouse liver microsomes (MLMs, 20 mg/mL) were purchased from Xenotech. NADPH was purchased from Sigma-Aldrich and prepared in 10 mM stock solutions of distilled H2O (Invitrogen UltraPure). […] Test compounds and positive controls were initially dissolved in MeOH to make 10 mM stock solutions. Sample solutions were then further diluted in 70/30 MeOH/H2O to 500 μM. Next, the reactions were prepared by mixing human or mouse liver microsomes (55 μL) with potassium phosphate buffer (100 mM, 928 μL) in 1.5 mL Eppendorf tubes. The test compounds (6.6 μL of 500 μM solution) were subsequently added to the suspensions, and the reaction mixtures were incubated at 37 °C for 5 min. Afterward, the liver microsome reactions were initiated with 110 μL of 10 mM NADPH and further incubated at 37 °C for the designated time course of the study. […] Each test compound was run in tandem with positive and negative control experiments for quality assurance. Positive control reactions were conducted at a final volume of 550 μL for a single run of each time point.
For both LM and plasma stability assays, each data point was analyzed in duplicate using in-between blank washes to avoid carry over and to equilibrate the column for the subsequent runs. Averages of these duplicate for individual compounds at each time point were then normalized to the data at 0 min, representing 100% test compound remaining or 0% metabolism. Half-lives (t1/2) were calculated by plotting ln of % test compound remaining versus time and performing linear regression to determine slope.
Metabolic Stability Assays
Liver Microsome Stability
Liver Microsome Stability Assay Setup Example
Quenching Mixture: 100 µL MeOH with ISTD (2 µM d5-7-ethoxycoumarin).
Final Volume After Quenching: 200 µL (100 µL from reaction mixture + 100 µL quencher
solution; ISTD final concentration of 1.0 µM).

[2] = Cellular cytotoxicity (cell viability, CellTiter 96 or resazurin); conditions: human, CC50, HEK293T cells, compounds formulated with HSA (5:1)
HEK293T cells = experiment: as above; conditions: HEK293T cells, 48 h, compounds formulated with HSA (5:1)
[3] = Solubility in antiviral/cytotoxicity assay medium; assay type: physicochemical; conditions: despite formulation with HSA
Source text: Nevertheless, due to the promising metabolic profile of 2i and 2j, our lab is continuing to analyze TXL analogs with chain lengths beyond 20 atoms and will disclose a report in the future. However, for the sake of this study, 2a remained as the most pharmacologically attractive starting point for ω-functionalization.

[4] = test system: HIV-1 subtype C strain MJ4; experiment: Single-cycle non-replicating HIV pseudoviral luciferase assay in HEK293T cells; conditions: Human immunodeficiency virus 1, HEK-293T, read-out: HIV IC50
Experimental: Second, HIV IC50 and cellular CC50 were determined with a pseudoviral, whole (HEK293T) cell, nonreplicative HIV assay, using the HIV-1 subtype C strain MJ4 (refer to Experimental Methods). To account for the unique amphiphilic properties of TXL and the novel HTP-based prodrugs, all compounds were formulated in a human serum albumin (HSA) solution (5:1 drug:protein).
Assessment of cytotoxicity and antiviral activity of all final compounds in vitro was conducted according to previously reported procedures.[39] In summary, human embryonic kidney (HEK293T) cells maintained in high glucose (25 mM), Dulbecco’s modified Eagle’s medium (DMEM) supplemented with fetal bovine serum (10%), sodium pyruvate (1 mM), L-glutamine (2 mM), HEPES (25 mM), and gentamicin (50 μg/mL) were used for determinations. The cells were maintained in an incubator at 37 °C under 5% CO2 in a humidified atmosphere. For both cytotoxicity and antiviral screening, all compounds were evaluated in duplicate in at least two independent experiments. All final compounds were formulated with human serum albumin (HSA, 5:1 compound to HSA molar ratio) and subsequently diluted with complete DMEM to 200 μM. Fifty microliters of test compound serial dilutions (3-fold) were prepared in 96-well culture plates, after which 50 μL of HEK293T cells (2 × 10^4 cells/well) was added. […] Cytotoxicity was then assessed by quantifying cell viability using the CellTiter 96 Aqueous One Solution Cell Proliferation Assay (Promega, Madison, WI) or resazurin sodium salt (cat# R7017, Merck, Darmstadt, Germany).[61] […] Antiviral activity was then assessed using a single-cycle, nonreplicating, envelope deleted HIV pseudoviral in vitro assay.[62],[63] The assay relies on the introduction of the firefly luciferase gene into HEK293T cells through infection with HIV-like viral particles, containing Reverse Transcriptase (RT) and Integrase (IN) from the HIV-1 subtype C strain MJ4.[64] The expression of the luciferase in the cells is directly proportional to the level of infection by the HIV-like viral particles and can be used to assess the inhibition of HIV-1 RT and IN. To evaluate anti-HIV activity, 3-fold serial dilutions of all final compounds were prepared in 50 μL over the noncytotoxic concentration range (as determined from the cytotoxicity screens described above) in 96-well culture plates. HEK293T cells (2 × 10^4 cells/well) and HIV-like viral particles, standardized to produce a luminescence signal of 1 × 10^6 relative light units (RLUs) in the growth medium only control, were combined, and 50 μL was added to the wells containing serially diluted test compounds. […] The expression of luciferase was subsequently quantified by adding 100 μL of the Bright-Glo Luciferase Assay substrate (Promega, Madison, WI) to each well of the 96-well plates. After incubation at rt for 3 min, luminescence was quantified on the GloMax Explorer Multimode Microplate Reader (Promega, Madison, WI).

HepaRG cellular uptake = conditions: human, HepaRG Cmax, 20 μM, HSA formulation 5:1, recorded after 3 h incubation
HepaRG cells [5] = experiment: HepaRG cellular uptake; conditions: 20 µM
[6] = HepaRG cellular metabolic stability; conditions: human, other cell line; for hepatocyte CLint at 20 μM: HepaRG Clint,u, calculated from cellular t1/2; for half-life at 20 μM: HepaRG t1/2, after 3 h loading at 20 μM, 37 °C
Source text: (§9) Naturally, due the metabolic complexity of HepaRG cells, we specifically analyzed prodrug cellular uptake and stability, as represented by Cmax and intrinsic clearance (Clint,u) accordingly (Figure 7 and Table 9).
(§10) The HepaRG cell line (HPRGC10, Thermo Fisher Scientific) was used to evaluate the cellular permeability and metabolic stability for select final compounds in vitro. The cells were initially thawed with working media composed of HepaRG Thaw, Plate, & General Purpose Medium Supplement (HPRG670), Williams Medium E (100 mL), and GlutaMax (1 mL), all purchased from Thermo Fisher Scientific. […] After the thawing medium was aspirated from each well, the cells were cultured for an additional 6 days with working media consisting of HepaRG Maintenance/Metabolism Medium Supplement (HPRG720), Williams Medium E (500 mL), and GlutaMax (1 mL), all purchased from Thermo Fisher Scientific. Upon completing the 7-day culture period, HepaRG cells were plated in enough wells to allow for duplicate analysis of prodrugs in two independent cellular uptake or metabolic stability experiments. All studied compounds were formulated with human serum albumin (HSA, 5:1 compound to HSA molar ratio) and subsequently diluted to a 20 μM final concentration with assay medium composed of serum-free INVITROGRO HI Medium and TORPEDO Antibiotic Mix purchased from BioIVT. For cellular uptake determinations, the maintenance/metabolism medium was first aspirated from each well, and then the plated cells were spiked with 1.0 mL of test compound stock solution. Subsequently, the plate was incubated at 37 °C under 5% CO2 environment over the desired time course (seven data points/compound). Blank wells not treated with prodrug were included in assay runs as controls and initial time points (0 min). At each time point, the test compound solution was removed from the appropriate wells, and the plated cells were washed with 1.0 mL of DPBS twice. The HepaRG cells were then extracted with 500 μL of cold ISTD solution (1 μM 7-ethoxy-d5-coumarin in 70/30 MeOH/H2O), and the quenched aliquots were centrifuged at 15,000 g for 10 min at 4 °C. […] After obtaining prodrug Cmax and Tmax values from the cellular uptake assay, HepaRG metabolic stability was then assessed. Following the initial 7-day culture procedure, the maintenance/metabolism medium was aspirated from each well, and the plated cells were spiked with 1.0 mL of test compound stock solution. […] The test compound solution was then removed from each well and replaced with untreated dilution medium (i.e., serum-free INVITROGRO HI Medium and TORPEDO Antibiotic Mix), initializing the stability determination. The HepaRG plate was once more incubated at 37 °C under 5% CO2 atmosphere over the desired time course (nine data points/compound), and sample preparation and analysis were handled in identical fashion to cellular uptake experiments.

HepaRG cells [7] = experiment: HepaRG cellular metabolic stability; conditions: for HepaRG t1/2: after 3 h loading at 20 μM, 37 °C
Source text: as §9, §10

Human plasma stability = assay type: in vitro ADME; conditions: both sexes, human, plasma; 3 μM, 37 °C, 240 min course; read-out: human plasma t1/2
Experimental: (§1) Human plasma (lithium heparin (LiHep) mixed, gender pooled, 0.2 μm filtered) and mouse plasma (BALB/C, LiHep mixed, male pooled, 0.2 μm filtered) were purchased from BioIVT. Procaine (Sigma-Aldrich) served as a positive control for both human and mouse plasma experiments. […] Next, the human or mouse plasma (994 μL) was aliquoted into 1.5 mL Eppendorf tubes with duplicates (reactions A and B) being prepared for each compound. The plasma was then incubated at 37 °C for 10 min. […] This procedure provided duplicate experiments with a final volume of 1000 μL (<0.2% organic solvent content) and a final test compound concentration of 3 μM. Aliquots (100 μL) were removed from each reaction mixture at 0, 30, 60, 120, and 240 min time intervals and quenched with 150 μL of cold ISTD solution (2 μM 7-ethoxy-d5-coumarin in MeOH). […] The positive control reaction was conducted at a final volume of 1000 μL for a single run of each time point. Finally, the negative control experiment was conducted with test compounds in Dulbecco’s phosphate buffered saline without calcium and magnesium (DPBS, Fisher Scientific, 143 μL) and analyzed at the 240 min time point.
(§2) Plasma Stability Assay Setup Example
(§3) Test Compound: 994 µL Human or Mouse Plasma + 6.0 µL TC (500 µM, Vial A).
(§4) 994 µL Human or Mouse Plasma + 6.0 µL TC (500 µM, Vial B).
(§5) Positive Control: 994 µL Human or Mouse Plasma + 6.0 µL Procaine (500 µM).
(§6) Negative Control: 142 µL DPBS (1X, pH 7.1-7.3) + 0.9 µL TC (500 µM).
(§7) Quenching Mixture: 150 µL MeOH with ISTD (2 µM d5-7-ethoxycoumarin).
(§8) Final Volume After Quenching: 250 µL (100 µL from reaction mixture and 150 µL quencher
solution; ISTD final concentration of 1.2 µM).
Human Plasma Stability of Compound 2a at 37 °C
Figure S29. In vitro human plasma stability of 2a (5 points over 240 min) with procaine serving

Mouse plasma stability = assay type: in vitro ADME; conditions: male, BALB/C, mouse, plasma; 3 μM, 37 °C, 240 min course; read-out: mouse plasma t1/2
Experimental: as §1, §2, §3, §4, §5, §6, §7, §8
solution; ISTD final concentration of 1.2 µM). […]

[8] = microsomes, HLM t1/2, HLM 1 mg/mL, 3 μM compound, NADPH, 37 °C, 120 min course

Compound | half-life at 3 μM [1, 8] [h] | half-life at 2.083 h, 3 µM [1, 8] [h] | CC50 at 48 h [2] [µM] | remaining at 2 h, 3 μM ([1]; microsomes) [%] | further results
CCCCCCCCCCCCCCCCCSCCOP(=O)(O)CO[C@H](C)Cn1cnc2c(N)ncnc21.N [2b] | 1.1 | 1.1 ± 0.0433 | 29 | – | CC50 (HEK293T cells): 28.6 ± 3.7 µM
CCCCCCCCCCCCCSCCCCCCOP(=O)(O)CO[C@H](C)Cn1cnc2c(N)ncnc21.N [2c] | 1.1 | 1.1 ± 0.05 | > 100 | – | –
CCCCCCCCCCSCCCCCCCCCOP(=O)(O)CO[C@H](C)Cn1cnc2c(N)ncnc21.N [2d] | – | 0.222 ± 0.00833 | > 100 | – | –
CCCCCCCSCCCCCCCCCCCCOP(=O)(O)CO[C@H](C)Cn1cnc2c(N)ncnc21.N [2e] | – | 0.3433 ± 0.00167 | > 100 | – | –
CCCCSCCCCCCCCCCCCCCCOP(=O)(O)CO[C@H](C)Cn1cnc2c(N)ncnc21.N [2f] | – | 0.32833 ± 5e-05 | > 100 | – | –
CCCCCCCCCCCCSCCCOP(=O)(O)CO[C@H](C)Cn1cnc2c(N)ncnc21.N [2g] | – | 0.188 ± 0.00333 | > 100 | – | –
CCCCCCCCCCCCCCSCCCOP(=O)(O)CO[C@H](C)Cn1cnc2c(N)ncnc21.N [2h] | – | 0.26 ± 0.00167 | > 100 | – | –
CCCCCCCCCCCCCCCCCCSCCCOP(=O)(O)CO[C@H](C)Cn1cnc2c(N)ncnc21.N [2i] | > 2 | – | – | 95 | HLM % remaining [1]: > 95%; solubility in the assay medium [3]: poor solubility
CCCCCCCCCCCCCCCCCCCCSCCCOP(=O)(O)CO[C@H](C)Cn1cnc2c(N)ncnc21.N [2j] | > 2 | – | – | 95 | HLM % remaining [1]: > 95%; solubility in the assay medium [3]: poor solubility
C#CCCCCCCCCCCCCCCSCCCOP(=O)(O)CO[C@H](C)Cn1cnc2c(N)ncnc21 [15b] | – | – | – | – | half-life at 3 μM ([1]; liver microsomes): > 1.58 h; half-life at 2.083 h, 3 µM ([1]; liver microsomes): 1.6 ± 0.03 h; IC50 [4]: 0.024 to 0.028 µM
C[C@H](Cn1cnc2c(N)ncnc21)OCP(=O)(O)OCCCSCCCCCCCCCCCCC#C[Si](C)(C)C.N [15c] | > 1.58 | – | > 100 | 82 | HLM t1/2 ([1]; HLM 1 mg/mL, 3 μM compound, NADPH, 37 °C, 120 min course): > 2 h; IC50 [4]: 0.024 to 0.028 µM
CC(C)[Si](C#CCCCCCCCCCCCSCCCOP(=O)(O)CO[C@H](C)Cn1cnc2c(N)ncnc21)(C(C)C)C(C)C.N [15d] | > 2 | – | 59.3 ± 2.4 | > 95 | –
C[C@H](Cn1cnc2c(N)ncnc21)OCP(=O)(O)OCCCSCCCCCCCCCCCCC#CC(C)(C)C.N [15e] | > 2 | – | > 100 | 71 | Cmax at 3 h, 20 μM (HepaRG cellular uptake): 242 ± 5.5 ng/mL; mean prodrug concentration in HepaRG cells (HepaRG cells [5]; 0.5 h): 169.76 ng/mL; mean prodrug concentration in HepaRG cells (HepaRG cells [5]; 1 h): 211.84 ng/mL; mean prodrug concentration in HepaRG cells (HepaRG cells [5]; 2 h): 233.02 ng/mL; mean prodrug concentration in HepaRG cells (HepaRG cells [5]; 3 h): 241.98 ng/mL; mean prodrug concentration in HepaRG cells (HepaRG cells [5]; 4 h): 281.89 ng/mL; mean prodrug concentration in HepaRG cells (HepaRG cells [5]; 6 h): 321.96 ng/mL; hepatocyte CLint at 20 μM [6]: 18 to 19 µL/min/1e6 cells; half-life at 20 μM [6]: 1.12 to 1.18 h; HepaRG t1/2 (HepaRG cells [7]): 1.11 ± 0.0833 h; HepaRG Clint,u (HepaRG cells [7]; calculated from cellular t1/2): 18.9 μL/min/million cells; IC50 [4]: 0.196 µM
C[C@H](Cn1cnc2c(N)ncnc21)OCP(=O)(O)OCCCSCCCCCCCCCCC#Cc1ccccc1.N [15f] | 1.18 | 1.19 ± 0.0183 | > 100 | – | –
C[C@H](Cn1cnc2c(N)ncnc21)OCP(=O)(O)OCCCSCCCCCCCCCCC#Cc1ccc(F)cc1.N [15g] | > 2 | – | > 100 | 67 | –
C[C@H](Cn1cnc2c(N)ncnc21)OCP(=O)(O)OCCCSCCCCCCCCCCC#CC1CCCCC1.N [15h] | > 2 | – | > 100 | 67 | HLM % remaining [1]: 70%
C[C@H](Cn1cnc2c(N)ncnc21)OCP(=O)(O)OCCCSCCCCCCCCCCCCCCC(C)(C)C.N [16e] | > 2 | – | 24 ± 1.4 | 95 | HLM % remaining [1]: > 95%; Cmax at 3 h, 20 μM (HepaRG cellular uptake): 1100 ± 63.6 ng/mL; mean prodrug concentration in HepaRG cells (HepaRG cells [5]; 0.5 h): 625.22 ng/mL; mean prodrug concentration in HepaRG cells (HepaRG cells [5]; 1 h): 984.12 ng/mL; mean prodrug concentration in HepaRG cells (HepaRG cells [5]; 3 h): 1100.03 ng/mL; mean prodrug concentration in HepaRG cells (HepaRG cells [5]; 4 h): 1000.18 ng/mL; mean prodrug concentration in HepaRG cells (HepaRG cells [5]; 6 h): 1196.77 ng/mL; hepatocyte CLint at 20 μM [6]: 10.2 µL/min/1e6 cells; half-life at 20 μM [6]: 2.05 h; HepaRG t1/2 (HepaRG cells [7]): 2.052 ± 0.05 h; IC50 [4]: 0.177 µM
C[C@H](Cn1cnc2c(N)ncnc21)OCP(=O)(O)OCCCSCCCCCCCCCCCCc1ccccc1.N [16f] | 1.13 | 1.14 ± 0.00167 | > 100 | – | –
C[C@H](Cn1cnc2c(N)ncnc21)OCP(=O)(O)OCCCSCCCCCCCCCCCOc1ccccc1.N [23a] | 0.133 | 0.14 ± 0.00167 | > 100 | – | –
C[C@H](Cn1cnc2c(N)ncnc21)OCP(=O)(O)OCCCSCCCCCCCCCCCSc1ccccc1.N [23b] | – | 0.132 ± 0.00333 | > 100 | – | –
C[C@H](Cn1cnc2c(N)ncnc21)OCP(=O)(O)OCCCSCCCCCCCCCCCOc1ccc(F)cc1.N [23c] | 0.8 to 0.833 | 0.82833 ± 0.0005 | > 100 | – | –
C[C@H](Cn1cnc2c(N)ncnc21)OCP(=O)(O)OCCCSCCCCCCCCCCCOC1CCCCC1.N [23d] | 0.8 to 0.833 | 0.7983 ± 0.00667 | > 100 | – | –
COC(=O)CCCCCCCCCCCCCCCSCCCOP(=O)(O)CO[C@H](C)Cn1cnc2c(N)ncnc21.N [23e] | – | 0.0917 ± 0.005 | > 100 | – | –
CCN(CC)CCOC(=O)c1ccc(N)cc1 [Procaine, reference compound] | – | – | – | – | half-life at 3 μM (Human plasma stability): 24 s; half-life at 3 μM (Mouse plasma stability): 42 s
